Test results taken from ChEMBL document CHEMBL3774387, “Synthesis and anticancer evaluation of spermatinamine analogues” (Bioorg Med Chem Lett, 2016).

Tests used:
MCF7 [1] = experiment: Cytotoxicity against human MCF7 cells assessed as viable cells after 24 hrs by Solid plate-based spot culture growth inhibition assay; format: functional, cell-based; details: MCF7, 24 h
[2] = Cytotoxicity against human DU145 cells assessed as viable cells after 24 hrs by Solid plate-based spot culture growth inhibition assay; format: functional, cell-based; details: DU-145, 24 h
MCF7 [3] = experiment: Cytotoxicity against human MCF7 cells assessed as viable cells after 24 hrs by MTT assay; format: functional, cell-based; details: MCF7, 24 h
HeLa [4] = experiment: Cytotoxicity against human HeLa cells assessed as viable cells after 48 hrs by MTT assay; format: functional, cell-based
MCF7 [5] = experiment: Cytotoxicity against human MCF7 cells assessed as viable cells after 48 hrs by MTT assay; format: functional, cell-based; details: MCF7, 48 h
[6] = Cytotoxicity against human DU145 cells assessed as viable cells after 48 hrs by MTT assay; format: functional, cell-based; details: DU-145, 48 h
[7] = Cytotoxicity against human DU145 cells assessed as viable cells after 24 hrs by MTT assay; format: functional, cell-based; details: DU-145, 24 h
HeLa [8] = experiment: Cytotoxicity against human HeLa cells assessed as viable cells after 24 hrs by MTT assay; format: functional, cell-based
[9] = Cytotoxicity against human DU145 cells assessed as growth inhibition at 100 uM after 24 hrs by MTT assay (reference value: 1.2 to 7.8%); format: functional; details: DU-145, 24 h, read-out: GI
MCF7 [10] = experiment: Cytotoxicity against human MCF7 cells assessed as growth inhibition at 1.25 uM after 24 hrs by MTT assay (reference value: 2.7 to 9.3%); format: functional; details: MCF7, 24 h, read-out: GI
[11] = Cytotoxicity against human DU145 cells assessed as growth inhibition at 10 uM after 24 hrs by MTT assay (reference value: 1.2 to 7.8%); format: functional; details: DU-145, 24 h, read-out: GI
HeLa [12] = experiment: Cytotoxicity against human HeLa cells assessed as growth inhibition at 5 uM after 24 hrs by MTT assay (reference value: 0 to 4.4%); format: functional; details: read-out: GI
[13] = Cytotoxicity against human DU145 cells assessed as growth inhibition at 2.5 uM after 24 hrs by MTT assay (reference value: 1.2 to 7.8%); format: functional; details: DU-145, 24 h, read-out: GI
MCF7 [14] = experiment: Cytotoxicity against human MCF7 cells assessed as growth inhibition at 50 uM after 24 hrs by MTT assay (reference value: 2.7 to 9.3%); format: functional; details: MCF7, 24 h, read-out: GI
MCF7 [15] = experiment: Cytotoxicity against human MCF7 cells assessed as growth inhibition at 10 uM after 24 hrs by MTT assay (reference value: 2.7 to 9.3%); format: functional; details: MCF7, 24 h, read-out: GI
MCF7 [16] = experiment: Cytotoxicity against human MCF7 cells assessed as growth inhibition at 25 uM after 24 hrs by MTT assay (reference value: 2.7 to 9.3%); format: functional; details: MCF7, 24 h, read-out: GI
HeLa [17] = experiment: Cytotoxicity against human HeLa cells assessed as growth inhibition at 100 uM after 24 hrs by MTT assay (reference value: 0 to 4.4%); format: functional; details: read-out: GI
HeLa [18] = experiment: Cytotoxicity against human HeLa cells assessed as growth inhibition at 2.5 uM after 24 hrs by MTT assay (reference value: 0 to 4.4%); format: functional; details: read-out: GI
HeLa [19] = experiment: Cytotoxicity against human HeLa cells assessed as growth inhibition at 1.25 uM after 24 hrs by MTT assay (reference value: 0 to 4.4%); format: functional; details: read-out: GI
MCF7 [20] = experiment: Cytotoxicity against human MCF7 cells assessed as growth inhibition at 2.5 uM after 24 hrs by MTT assay (reference value: 2.7 to 9.3%); format: functional; details: MCF7, 24 h, read-out: GI
[21] = Cytotoxicity against human DU145 cells assessed as growth inhibition at 50 uM after 24 hrs by MTT assay (reference value: 1.2 to 7.8%); format: functional; details: DU-145, 24 h, read-out: GI
HeLa [22] = experiment: Cytotoxicity against human HeLa cells assessed as growth inhibition at 50 uM after 24 hrs by MTT assay (reference value: 0 to 4.4%); format: functional; details: read-out: GI
HeLa [23] = experiment: Cytotoxicity against human HeLa cells assessed as growth inhibition at 10 uM after 24 hrs by MTT assay (reference value: 0 to 4.4%); format: functional; details: read-out: GI
[24] = Cytotoxicity against human DU145 cells assessed as growth inhibition at 1.25 uM after 24 hrs by MTT assay (reference value: 1.2 to 7.8%); format: functional; details: DU-145, 24 h, read-out: GI
MCF7 [25] = experiment: Cytotoxicity against human MCF7 cells assessed as growth inhibition at 5 uM after 24 hrs by MTT assay (reference value: 2.7 to 9.3%); format: functional; details: MCF7, 24 h, read-out: GI
[26] = Cytotoxicity against human DU145 cells assessed as growth inhibition at 25 uM after 24 hrs by MTT assay (reference value: 1.2 to 7.8%); format: functional; details: DU-145, 24 h, read-out: GI
[27] = Cytotoxicity against human DU145 cells assessed as growth inhibition at 5 uM after 24 hrs by MTT assay (reference value: 1.2 to 7.8%); format: functional; details: DU-145, 24 h, read-out: GI
MCF7 [28] = experiment: Cytotoxicity against human MCF7 cells assessed as growth inhibition at 100 uM after 24 hrs by MTT assay (reference value: 2.7 to 9.3%); format: functional; details: MCF7, 24 h, read-out: GI
HeLa [29] = experiment: Cytotoxicity against human HeLa cells assessed as growth inhibition at 25 uM after 24 hrs by MTT assay (reference value: 0 to 4.4%); format: functional; details: read-out: GI

COc1c(Br)cc(C/C(=N\O)C(=O)NCCCN(C)CCCCN(C)CCCNC(=O)/C(Cc2cc(Br)c(OC)c(Br)c2)=N/O)cc1Br
IC50 (MCF7 [1]): 1.6 µM
IC50 [2]: 1.6 µM

COc1c(Br)cc(C/C(=N\O)C(=O)NCCCCCNC(=O)/C(Cc2cc(Br)c(OC)c(Br)c2)=N/O)cc1Br
IC50 (MCF7 [3]): > 100 µM
IC50 (HeLa [4]): > 100 µM
IC50 (MCF7 [5]): > 100 µM
IC50 [6]: > 100 µM
IC50 [7]: > 100 µM
IC50 (HeLa [8]): > 100 µM

COc1c(Br)cc(C/C(=N\OCc2ccccc2)C(=O)NCCCNCCCCNCCCNC(=O)/C(Cc2cc(Br)c(OC)c(Br)c2)=N/OCc2ccccc2)cc1Br
inhibition of growth at 100 µM [9]: 97.3%
inhibition of growth at 1.25 µM (MCF7 [10]): 19.2%
inhibition of growth at 10 µM [11]: 98.5%
IC50 (MCF7 [3]): 4.5 µM
inhibition of growth at 5 µM (HeLa [12]): 93.5%
inhibition of growth at 2.5 µM [13]: 24.4%
inhibition of growth at 50 µM (MCF7 [14]): 97.7%
inhibition of growth at 10 µM (MCF7 [15]): 98.9%
inhibition of growth at 25 µM (MCF7 [16]): 97.6%
IC50 (HeLa [4]): 2.9 µM
inhibition of growth at 100 µM (HeLa [17]): 94.7%
inhibition of growth at 2.5 µM (HeLa [18]): 23.5%
IC50 (MCF7 [5]): 3.4 µM
IC50 [6]: 4.6 µM
inhibition of growth at 1.25 µM (HeLa [19]): 0%
inhibition of growth at 2.5 µM (MCF7 [20]): 30%
inhibition of growth at 50 µM [21]: 98.4%
inhibition of growth at 50 µM (HeLa [22]): 96.9%
inhibition of growth at 10 µM (HeLa [23]): 98.3%
IC50 [7]: 4 µM
IC50 (HeLa [8]): 4 µM
inhibition of growth at 1.25 µM [24]: 15.5%
inhibition of growth at 5 µM (MCF7 [25]): 58.6%
inhibition of growth at 25 µM [26]: 98.6%
inhibition of growth at 5 µM [27]: 68.2%
inhibition of growth at 100 µM (MCF7 [28]): 96.4%

CO/N=C(\Cc1cc(Br)c(OC)c(Br)c1)C(=O)NCCCCCNC(=O)/C(Cc1cc(Br)c(OC)c(Br)c1)=N/OC
IC50 (MCF7 [3]): > 100 µM
IC50 (HeLa [4]): > 100 µM
IC50 (MCF7 [5]): > 100 µM
IC50 [6]: > 100 µM
IC50 [7]: > 100 µM
IC50 (HeLa [8]): > 100 µM

CO/N=C(\Cc1cc(Br)c(OC)c(Br)c1)C(=O)NCCNCCNC(=O)/C(Cc1cc(Br)c(OC)c(Br)c1)=N/OC
inhibition of growth at 100 µM [9]: 95.6%
inhibition of growth at 1.25 µM (MCF7 [10]): 11.4%
inhibition of growth at 10 µM [11]: 20.2%
IC50 (MCF7 [3]): 27.1 µM
inhibition of growth at 5 µM (HeLa [12]): 0.1%
inhibition of growth at 2.5 µM [13]: 21.3%
inhibition of growth at 50 µM (MCF7 [14]): 96.9%
inhibition of growth at 10 µM (MCF7 [15]): 23%
inhibition of growth at 25 µM (MCF7 [16]): 46.2%
IC50 (HeLa [4]): 10.8 µM
inhibition of growth at 100 µM (HeLa [17]): 97.1%
inhibition of growth at 2.5 µM (HeLa [18]): 4.8%
IC50 (MCF7 [5]): 30.9 µM
IC50 [6]: 27.9 µM
inhibition of growth at 1.25 µM (HeLa [19]): 11%
inhibition of growth at 2.5 µM (MCF7 [20]): 23.9%
inhibition of growth at 50 µM [21]: 99%
inhibition of growth at 25 µM (HeLa [29]): 80.1%
inhibition of growth at 50 µM (HeLa [22]): 95%
inhibition of growth at 10 µM (HeLa [23]): 24.5%
IC50 [7]: 25.8 µM
IC50 (HeLa [8]): 25.8 µM
inhibition of growth at 1.25 µM [24]: 19.9%
inhibition of growth at 5 µM (MCF7 [25]): 20.3%
inhibition of growth at 25 µM [26]: 26.7%
inhibition of growth at 5 µM [27]: 22.1%
inhibition of growth at 100 µM (MCF7 [28]): 96.9%
